“Also recorded” adds a separate entry of the source.
Experiments:
[1] = tested on: conjunctival goblet cells; test: Distribution of conjunctival goblet cells (PAS staining), dry eye model; assay type: in vivo, NOD.B10.H2b mice; details: 10 days of treatment after removal of dry stress; normal 14.38±0.44, DS 10D 6.02±0.29
Procedure: (§1) NOD.B10.H2^b mice were purchased from Jackson Laboratory (Bar Harbor, Me., USA). Animal experiments were carried out in accordance with the guidelines approved by the University of Inje (No.; 2014-029) and ARVO regarding animal use for eye and vision research. NOD.B10.H2^b mice at 12-16 weeks old were exposed to 40-50% ambient humidity and ventilation using a fan for 18 hours a day as dry stress and subcutaneously injected with 0.5 mg/0.2 mL muscarinic receptor blocker. In addition, scopolamine hydrobromide (Sigma-Aldrich, St. Louis, Mo.) was injected alternately to the […] hips four times a day for 10 days at 9 am, […].
(§2) After 10 days of ocular dry stress, the scopolamine injection was stopped, and switched to a normal humidity and temperature environment and the dry stress was removed, 10 mg/ml Hyp-[…] and collagen were dissolved in normal saline to administer 5 μL each 5 times a day for 10 days, and normal saline and 0.1% HA were administered to the eyeball 5 times a day for 10 days. Three mice were used in each of the six experimental groups using both eyes of the mice and all experiments were repeated.
The distribution of conjunctival goblet cells according to eye drop in dry eye mice was observed.

corneal surface = test: Corneal surface irregularity (smoothness) score, dry eye model; assay type: in vivo, NOD.B10.H2b mice; details: day 10 after removal of dry stress; grades 0-5; normal 0.33±0.58, DS 10D 4.33±0.58
Procedure: as §1, §2
As for the curvature of the corneal surface, a reflected image of the white ring was obtained from an optical fiber ring illumination of a stereoscopic microscope (SZX7; Olympus) after anesthetizing the animal. Corneal smoothness was assessed by grading the irregularity of corneal epithelial cells reflected in the white ring of the digital image. Corneal irregularity severity score was calculated by dividing the reflection ring into quadrants and grading into 5 grades according to degree of irregularity. No irregularity is grade 0, irregularity of ¼ (quarter) is grade 1; irregularity of 2/4 (two-quarters) is grade 2; irregularity of ¾ (three-quarters) is grade 3; entire irregularity is grade 4; and […] and thus all the rings were confirmed.
The degree of corneal curvature in each experiment group was quantified to confirm the bendability of the corneal surface.

corneal epithelial cell = test: Corneal epithelial cell detachment (H&E), dry eye model; assay type: in vivo, NOD.B10.H2b mice; details: 10 days of treatment after removal of dry stress; DS 10D 2.29±0.57
Procedure: as §1, §2

[2] = Tear amount by phenol red-impregnated cotton threads, dry eye model; assay type: in vivo, NOD.B10.H2b mice; details: 10 days of treatment after removal of dry stress; normal 0.22±0.01, DS 10D 0.03±0.01
Procedure: Tear production was measured by a method reported using phenol red-impregnated cotton threads (Zone-Quick, Oasis, Glendora, Calif.) (Villareal A L, Farley W, Pflugfelder S C. Effect of topical ophthalmic epinastine and olopatadine on tear volume in mice. Eye Contact Lens. 2006; 32 (6): 272-276.). […] The measured lachrymal fluid in the millimeter was compared with a standard curve expressed as a cotton thread which was soaked with the expected tear amount of mouse of basic solution ([…] of 0.9% salt and 5 mL of 5 N NaOH) for 20 seconds.
The degree of tear generation was measured by phenol red-impregnated cotton threads.

VEGF, ICAM and MCP-1 = test: Quantitative real-time RT-PCR of retina and choroid, laser CNV model; assay type: in vivo, C57BL/6 mice; details: mouse, 14 days after laser; 5 μg; laser-treated group increased about 55 times
Procedure: In order to confirm the inhibitory effect of hydroxy proline-GQDGLAGPK on neovascularization-related gene expression, RNA was extracted using RNeasy Mini kit (Qiagen) in mixture of retina and choroid of extracted mice eyeballs, and cDNA was synthesized by using oligo(dT) primer and reverse transcriptase. PCR products were amplified using the specific primer set (COSMOGENETECH, Korea) shown in Table 1 and SYBR Green PCR 2X PreMix (Enzynomics) and for the PCR conditions, the samples were incubated at 95° C. for 10 minutes, and 40 PCR cycles at 95° C. for 15 seconds, 60° C. for 30 seconds and 72° C. for 15 seconds, were performed. Relative quantification was calculated using 2-(DDCT) method [Livak and Schmittgen, 2001; DDCT=(CT, target-CT, actin) control group (CT, target-CT, actin) control group].
After 14 days of laser irradiation in mouse, RNA was extracted from retina and choroid to analyze the gene expression by real-time RT-PCR.

[3] = tested on: human vascular endothelial cells (HUVEC); test: Tubing assay (VEGF-induced tube formation); assay type: cell-based; details: 50 ng/ml recombinant human VEGF, 4 hours
Procedure: The antiangiogenic effect of hydroxy proline-GQDGLAGPK was confirmed by tubing assay using human vascular endothelial cells (HUVEC).
HUVEC cells were stained with calcein-AM and then dispensed on a Matrigel-coated 48-well plate, treated with collagen, CPI and CPII at concentrations together with 50 ng/ml of recombinant human VEGF, and after 4 hours of incubation at 37° C., tube formation was observed by fluorescence microscopy (Leica) and tube length was analyzed by Image lab software (Bio-Rad Laboratories).
Tubing assay using human vascular endothelial cells (HUVEC) was performed to confirm the anti-angiogenic effect of hydroxyl proline-GQDGLAGPK.

[4] = tested on: choroidal neovascularization (CNV); test: Laser-induced choroidal neovascularization (CNV), lesion size by retina-choroid flat-mount; assay type: in vivo, C57BL/6 mice; details: mouse, laser irradiation; 2 μg intraocular injection for 5 days
Procedure: C57BL/6 mice were purchased from Orient Bio and the animal experiments was carried out in accordance with the guidelines approved by the University of Inje (No, 2013-053) and ARVO regarding animal use for eye and vision studies. 6-week-old C57BL/6 mice were treated with diode green laser (532 nm, 150 mW, 0.1 sec, […], photocoagulator) to damage the retinal optic nerve area. […] The above experiment for each experiment group was performed using both eyes of five mice each. […]
The mouse was anesthetized and injected with 25 mg/ml of FITC-dextran in […] of retro-orbital. After 30 minutes, the mouse was euthanized and the eyeball was extracted and fixed with 10% formalin and then, the cornea and lens were removed and flat mounted on the cover glass. The neovasculature stained with FITC-dextran was observed by fluorescence microscopy (Leica) and the lesion size was measured by Image J program. […]

Compound | conjunctival goblet cells [1] | degree of curvature (irregularity score) of the corneal surface (corneal surface) [points] | corneal epithelial cell detachment (corneal epithelial cell) | tear amount [2] [µL] | VEGF gene expression in retina and choroid (VEGF, ICAM and MCP-1) | inhibition of tube formation (angiogenesis) [3] | CNV lesions [4]
O=c1ccn([C@@H]2O[C@H](COP(=O)([O-])OP(=O)([O-])OP(=O)([O-])OP(=O)([O-])OC[C@H]3O[C@@H](n4ccc(=O)[nH]c4=O)[C@H](O)[C@@H]3O)[C@@H](O)[C@H]2O)c(=O)[nH]1.[Na+].[Na+].[Na+].[Na+] [DQS, reference compound] | 8.86±0.29 /0.1 mm^2 | 3.0±1.0 | 0.095±0.17 /0.1 mm^2 | 0.16 ± 0.02 |  |  | 
Avastin: a remedy of an age-related macular degeneration; positive control [reference compound] |  |  |  |  | decreased to the level similar to that of the laser-untreated group |  | 
GDRGD [CPI] |  |  |  |  |  | significant inhibition of angiogenesis | reduced; also recorded: decreased
collagen [reference compound] | 11.05±0.33 /0.1 mm^2 | 3.67±1.16 | 0.86±0.29 /0.1 mm^2 | 0.13 ± 0.02 |  | significant inhibition of angiogenesis | reduced; also recorded: decreased

Source: patent US10532084B2, “Chondrocyte extracellular matrix-derived peptide” (EYEBIO KOREA, priority 2016, dated 2020)
